Experimental findings from ChEMBL document CHEMBL3085684, “Unraveling phosphodiesterase surfaces. Identification of phosphodiesterase 7 allosteric modulation cavities” (Eur J Med Chem, 2013) are described below.

pIC50: −log10 of the molar value. Calls of active or inactive are those of the source. The rule behind the calls is not given here.

One assay deals with T1, High affinity 3',5'-cyclic-AMP phosphodiesterase 7A (Homo sapiens, UniProt Q13946). In words: Non-competitive mixed type inhibition of human recombinant PDE7A1 using […] after 20 mins by Lineweaver-Burk plot analysis.
T1 sequence (Q13946 whole entry): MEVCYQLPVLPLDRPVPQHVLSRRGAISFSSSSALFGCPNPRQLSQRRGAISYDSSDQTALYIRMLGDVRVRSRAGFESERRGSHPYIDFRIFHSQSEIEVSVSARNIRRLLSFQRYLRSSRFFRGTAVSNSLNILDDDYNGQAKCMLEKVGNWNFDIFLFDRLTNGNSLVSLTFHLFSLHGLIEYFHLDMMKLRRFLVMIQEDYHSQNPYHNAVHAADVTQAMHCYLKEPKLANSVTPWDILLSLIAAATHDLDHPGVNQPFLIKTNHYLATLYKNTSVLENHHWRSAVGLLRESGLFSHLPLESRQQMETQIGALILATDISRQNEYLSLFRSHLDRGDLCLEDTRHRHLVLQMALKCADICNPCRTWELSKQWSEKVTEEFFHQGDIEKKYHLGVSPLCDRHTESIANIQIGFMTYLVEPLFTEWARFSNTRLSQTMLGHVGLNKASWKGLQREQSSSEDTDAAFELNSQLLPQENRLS
In the case of `S=c1[nH]c2ccccc2c(=S)n1-c1ccccc1`, the inhibition entry was “Active”. In the case of `O=c1c2ccccc2[nH]c(=S)n1-c1ccccc1`, the inhibition entry is “Active”.

The target of a further assay is T1, High affinity 3',5'-cyclic-AMP phosphodiesterase 7A. The experiment in a line: Inhibition of human recombinant PDE7A1 using […] after 20 mins by scintillation proximity assay. In general terms: In a scintillation proximity assay essentially only radioactivity close to the scintillant gives light.
The term pIC50 denotes −log10 of the IC50, conventionally taken in molar units. `Cc1cccc2c(=O)n(-c3c(F)cccc3F)c(=S)[nH]c12`: the negative logarithm of the IC50 (pIC50) was 5.03.

Consider `CSc1nc2c(Cl)cccc2c(=O)n1-c1c(F)cccc1F`, for which the pIC50 is 4.82. Turning to `CSc1nc2ccc(Br)cc2c(=O)n1-c1ccc(F)c(F)c1F`, the negative-log IC50 (pIC50) is 5.29.

`Fc1cccc(F)c1-n1c(=S)[nH]c2ccccc2c1=S`: the pIC50 is 6.32. Regarding `CSc1nc2c(C)cccc2c(=O)n1-c1ccccc1Br`, the pIC50 was 5.77. With `O=c1c2ccccc2[nH]c(=S)n1-c1ccc(F)c(F)c1F`, the pIC50 is 5.15.

In the case of `CSc1nc2ccccc2c(=S)n1-c1c(F)cccc1F`, the pIC50 was 5.49.

As for `CSc1nc2ccccc2c(=S)n1-c1ccccc1Br`, the pIC50 was 5.27.

A further assay has the same target. The experiment in a line: Competitive inhibition of human recombinant PDE7A1 using […] after 20 mins by Lineweaver-Burk plot analysis.
In the case of `CSc1nc2ccccc2c(=O)n1-c1c(F)cccc1F`, the “competitive inhibition (Lineweaver-Burk)” value is “Active”. Regarding `O=c1c2ccccc2nc(SCc2ccccc2)n1-c1ccccc1`, the “competitive inhibition (Lineweaver-Burk)” value is “Active”.

For the compound `CC(C)Cn1c(=O)n(C)c(=O)c2nc[nH]c21`, the “competitive inhibition (Lineweaver-Burk)” value was “Active”.

As to `CCSc1nc2ccccc2c(=O)n1-c1ccccc1`, the “competitive inhibition (Lineweaver-Burk)” value was “Active”.
